# According to ChEMBL document CHEMBL1201862, “PubChem BioAssay data set” (2004):
#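 How tested: cells in 96-well plates exposed to compound for 48 hours at five concentrations. GI50 marks 50% less growth.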 The source made the active and inactive calls. No stated cut-off is given here; in the data, active = GI50 up to about 1.1 µM and inactive = higher.
# Key:
# Assay in all cases: NCI tumour cell line growth inhibition, 48 h
# [1] = test system: UACC-62
# [2] = test system: Malme-3M
# [3] = test system: SF-295
# [4] = test system: MDA-MB-231
# [5] = test system: T47D
# [6] = test system: SNB-19
# [7] = test system: HOP-92
# [8] = test system: MCF7
# [9] = test system: SW-620
# [10] = test system: IGROV-1
# [11] = test system: OVCAR-3
# [12] = test system: MDA-N
# [13] = test system: SK-MEL-2
# [14] = test system: HOP-62
# [15] = test system: OVCAR-5
# [16] = test system: OVCAR-4
# [17] = test system: SK-MEL-28
# [18] = test system: MDA-MB-435
# [19] = test system: HT-29
# [20] = test system: Hs-578T
SMILES,GI50 [1],GI50 [2],GI50 [3],GI50 [4],GI50 [5],GI50 [6],GI50 [7],GI50 [8],GI50 [9],GI50 [10],GI50 [11],GI50 [12],GI50 [13],GI50 [14],GI50 [15],GI50 [16],GI50 [17],GI50 [18],GI50 [19],GI50 [20]
CCN(CCO)CCNc1ccc(C)c2sc3ccccc3c(=O)c12,1.76 µM (inactive),3.44 µM (inactive),3.82 µM (inactive),1.88 µM (inactive),3.01 µM (inactive),11 µM (inactive),4.37 µM (inactive),1.8 µM (inactive),2.28 µM (inactive),4.2 µM (inactive),10.2 µM (inactive),1.74 µM (inactive),3.59 µM (inactive),3.97 µM (inactive),5.15 µM (inactive),7.8 µM (inactive),2.02 µM (inactive),1.96 µM (inactive),2.52 µM (inactive),2.25 µM (inactive)
CC1(C)N=C(/C(Cl)=[N+](/[O-])C(=O)c2ccc(F)cc2)C(C)(C)N1O,16.7 µM (inactive),16.3 µM (inactive),31.8 µM (inactive),16.8 µM (inactive),25.7 µM (inactive),> 100 µM (inactive),24.5 µM (inactive),19.1 µM (inactive),15.1 µM (inactive),19.5 µM (inactive),17 µM (inactive),16.4 µM (inactive),17.1 µM (inactive),19.6 µM (inactive),18 µM (inactive),17.9 µM (inactive),15.8 µM (inactive),21.4 µM (inactive),19.9 µM (inactive),26.6 µM (inactive)
CN(C)C(=O)c1nnsc1NN=O,> 100 µM (inactive),> 100 µM (inactive),> 100 µM (inactive),> 100 µM (inactive),> 100 µM (inactive),> 100 µM (inactive),> 100 µM (inactive),> 100 µM (inactive),> 100 µM (inactive),> 100 µM (inactive),87.7 µM (inactive),> 100 µM (inactive),> 100 µM (inactive),> 100 µM (inactive),> 100 µM (inactive),> 100 µM (inactive),> 100 µM (inactive),> 100 µM (inactive),> 100 µM (inactive),> 100 µM (inactive)
O=C(Nc1c(Cl)cc([N+](=O)[O-])cc1Cl)C(=O)C1C(=O)NC(=S)NC1=O,> 100 µM (inactive),> 100 µM (inactive),> 100 µM (inactive),> 100 µM (inactive),> 100 µM (inactive),> 100 µM (inactive),> 100 µM (inactive),> 100 µM (inactive),> 100 µM (inactive),> 100 µM (inactive),> 100 µM (inactive),> 100 µM (inactive),> 100 µM (inactive),> 100 µM (inactive),> 100 µM (inactive),> 100 µM (inactive),> 100 µM (inactive),> 100 µM (inactive),> 100 µM (inactive),> 100 µM (inactive)
Cc1cc(=O)oc2c(C3=NN(C=O)C(c4ccccc4)C3)c(O)ccc12 (stereo not given),82.2 µM (inactive),> 71.9 µM (inactive),10 µM (inactive),59.6 µM (inactive),> 100 µM (inactive),47.4 µM (inactive),23 µM (inactive),> 50.5 µM (inactive),> 100 µM (inactive),70 µM (inactive),> 71.3 µM (inactive),> 54.8 µM (inactive),52.5 µM (inactive),37.1 µM (inactive),> 87.7 µM (inactive),> 64.1 µM (inactive),> 100 µM (inactive),> 65.9 µM (inactive),> 80.7 µM (inactive),31.2 µM (inactive)
COc1cc(Cn2c3c(c4cc(O)ccc42)C(=O)c2ccccc2C3=O)cc(OC)c1,2.04 µM (inactive),8.22 µM (inactive),6.85 µM (inactive),5.32 µM (inactive),6.35 µM (inactive),4.5 µM (inactive),1.85 µM (inactive),12.2 µM (inactive),16.7 µM (inactive),2.11 µM (inactive),20.6 µM (inactive),1.49 µM (inactive),14.7 µM (inactive),2.77 µM (inactive),9.23 µM (inactive),4.86 µM (inactive),7.96 µM (inactive),0.743 µM (active),4.1 µM (inactive),11 µM (inactive)
O=C1CCC2(CC1CC(Sc1ccccc1)Sc1ccccc1)OCCO2 (stereo not given),31.2 µM (inactive),29.6 µM (inactive),52.6 µM (inactive),83.4 µM (inactive),22.5 µM (inactive),74.1 µM (inactive),28 µM (inactive),32 µM (inactive),49.4 µM (inactive),74.3 µM (inactive),30.6 µM (inactive),42.4 µM (inactive),24.9 µM (inactive),81.1 µM (inactive),72.4 µM (inactive),56.1 µM (inactive),85.9 µM (inactive),36.7 µM (inactive),61.4 µM (inactive),23.2 µM (inactive)
